According to patent publication US5462933A, “Modified bile acid conjugates, and their use as pharmaceuticals” (Hoechst Aktiengesellschaft, priority 1989, dated 1995):

Assay: In vivo perfused liver: absorption from portal vein blood and excretion into the bile
Parameters: species or system rat
Settings: after W-X-G (Example 67)
Protocol: In order to investigate a selective absorption of bile acid derivatives into the liver and their hepatotropic action, the appropriate derivatives were injected as a bolus into a mesenteric vein of anesthetized rats and the excretion of these derivatives and the corresponding active compounds or active compound metabolites into the bile was analysed.
Male Sprague-Dawley rats (300-500 g bodyweight) had their food withdrawn and received water ad libitum. After tracheotomy, the abdomen was opened by median section under urethane anesthesia ([…] i.m. urethane 30%). The pylorus was ligated and the bile duct was cannulated by advancing a polyethylene tube (d=0.05 mm) up to the liver and the bile was drained. The volume of secretion was measured at 15 minute intervals. After a preliminary period of 60 minutes, the substances (0.5 ml of a 1 mM solution in 0.9% NaCl solution) were administered into a mesenteric vein in the course of 30 sec and the bile was collected at prestated time intervals (2, 4, 6, 8, 10, 15, 20, 30, 40, 50, 60, 70, 80, 90, 100, 110 and 120 min). The bile acid derivative was administered first, and the appropriate active compound was administered after a collection period of 2 hours. 120 min after administration of test substance, the bladder volume was measured and the urine was also collected. The bile and urine samples were stored on ice during the experiment and then deep-frozen.
Each 10 μl bile sample was applied to TLC plates (10×20 cm, silica gel 60 specific layer thickness 0.25 mm, No. 37581 Riedel de Haen, Seelze, Federal Republic of Germany) using Microcaps (Drummond, Broomall, USA) and the thin-layer plates were dried in the air for 20 min.
The plates were developed in the following mobile phases: Substance Mobile phase
The constituents of the mobile phases were bought from the usual manufacturers in the highest possible purity grade. After developing and drying the plates, the distribution of the active compounds and the bile acid derivatives, or their metabolites, was determined by densitometry (CD 50 densitometer, DESAGA; Heidelberg). Detection was carried out in reflection mode with linear sampling at the wavelengths 252 nm (chlorambucil/chlorambucil conjugate) or 260 nm (remaining substances).
In order to evaluate the chromatograms, the relative intensity of the bile acid derivatives, the active compounds or the active compound metabolites on a chromatogram was given in surface area units.

Structure (SMILES): C[C@H](CCC(=O)NCCS(=O)(=O)O)[C@H]1CC[C@H]2[C@@H]3[C@H](O)C[C@@H]4C[C@@H](OCCNC(=O)CCCc5ccc(N(CCCl)CCCl)cc5)CC[C@]4(C)[C@H]3C[C@H](O)[C@]12C [Example 67]
- (2) Conc. W-X-G in bile (bile at 2 min): 1207 surface area units
- Total (1) + (2) (bile at 2 min): 1207 surface area units
- (2) Conc. W-X-G in bile (bile at 4 min): 17803 surface area units
- Total (1) + (2) (bile at 4 min): 17803 surface area units
- (2) Conc. W-X-G in bile (bile at 6 min): 21762 surface area units
- Total (1) + (2) (bile at 6 min): 21762 surface area units
- (2) Conc. W-X-G in bile (bile at 8 min): 27280 surface area units
- Total (1) + (2) (bile at 8 min): 27280 surface area units
- (2) Conc. W-X-G in bile (bile at 10 min): 27346 surface area units
- Total (1) + (2) (bile at 10 min): 27346 surface area units
- (2) Conc. W-X-G in bile (bile at 15 min): 16673 surface area units
- Total (1) + (2) (bile at 15 min): 16673 surface area units
- (2) Conc. W-X-G in bile (bile at 20 min): 10748 surface area units
- Total (1) + (2) (bile at 20 min): 10748 surface area units
- (2) Conc. W-X-G in bile (bile at 30 min): 5375 surface area units
- Total (1) + (2) (bile at 30 min): 5375 surface area units
- (2) Conc. W-X-G in bile (bile at 40 min): 1273 surface area units
- Total (1) + (2) (bile at 40 min): 1273 surface area units
- (2) Conc. W-X-G in bile (bile at 50 min): 828 surface area units
- Total (1) + (2) (bile at 50 min): 828 surface area units
- (2) Conc. W-X-G in bile (bile at 60 min): 633 surface area units
- Total (1) + (2) (bile at 60 min): 633 surface area units
- (2) Conc. W-X-G in bile (bile at 70 min): 826 surface area units
- Total (1) + (2) (bile at 70 min): 826 surface area units
- (2) Conc. W-X-G in bile (bile at 80 min): 635 surface area units
- Total (1) + (2) (bile at 80 min): 635 surface area units
- (2) Conc. W-X-G in bile (bile at 90 min): 638 surface area units
- Total (1) + (2) (bile at 90 min): 638 surface area units
- (2) Conc. W-X-G in bile (bile at 100 min): 559 surface area units
- Total (1) + (2) (bile at 100 min): 559 surface area units
- (2) Conc. W-X-G in bile (bile at 110 min): 408 surface area units
- Total (1) + (2) (bile at 110 min): 408 surface area units
- (2) Conc. W-X-G in bile (bile at 120 min): 383 surface area units
- Total (1) + (2) (bile at 120 min): 383 surface area units
